For 39 compounds, IC50 results are on record in patent publication US6881741B2 (ViroChem Pharma Inc., priority 2001, dated 2005).

The test deals with recombinant HCV NS5B (HCV RNA-dependent RNA polymerase) (Hepatitis C virus genotype 1b, UniProt P26663). Briefly: biochemical. As to conditions: related polymerase activity (Example 27 list); read-out: IC50.
recombinant HCV NS5B (HCV RNA-dependent RNA polymerase), sequence (P26663 2420-3010 limits assumed): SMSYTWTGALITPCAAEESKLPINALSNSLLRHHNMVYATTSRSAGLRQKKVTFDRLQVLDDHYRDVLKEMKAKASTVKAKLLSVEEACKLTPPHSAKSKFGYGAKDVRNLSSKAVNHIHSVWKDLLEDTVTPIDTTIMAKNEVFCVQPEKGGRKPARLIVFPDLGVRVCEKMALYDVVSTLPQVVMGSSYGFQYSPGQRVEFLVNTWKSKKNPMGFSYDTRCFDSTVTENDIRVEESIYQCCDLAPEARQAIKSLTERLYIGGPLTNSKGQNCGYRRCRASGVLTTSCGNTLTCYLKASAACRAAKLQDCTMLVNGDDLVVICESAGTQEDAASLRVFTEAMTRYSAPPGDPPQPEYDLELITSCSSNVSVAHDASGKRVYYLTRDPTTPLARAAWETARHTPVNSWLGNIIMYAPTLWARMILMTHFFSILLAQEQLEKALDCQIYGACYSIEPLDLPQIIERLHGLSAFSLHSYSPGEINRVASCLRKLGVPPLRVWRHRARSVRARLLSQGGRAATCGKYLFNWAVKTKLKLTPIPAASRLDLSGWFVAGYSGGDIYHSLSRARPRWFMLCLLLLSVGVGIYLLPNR

As to `O=C(O)c1sc(-c2ccccc2)cc1NC(=O)N1CCN(c2ccc([N+](=O)[O-])cc2)CC1` [Compound 114, 3-{[4-(4-NITRO-PHENYL)-PIPERAZINE-1-CARBONYL]-AMINO}-5-PHENYL-THIOPHENE-2-CARBOXYLIC ACID], the IC50 (as a rule, the concentration that gives 50% inhibition) is below 5 µM. As to `Cc1ccccc1S(=O)(=O)Nc1cc(-c2ccccc2C(=O)O)sc1C(=O)O` [Compound 115, 5-(2-CARBOXY-PHENYL)-3-(TOLUENE-2-SULFONYLAMINO)-THIOPHENE-2-CARBOXYLIC ACID], the IC50 was in the range of 5 to 20 µM. The figure for `O=C(O)c1sc(-c2ccc(Cl)cc2)cc1NS(=O)(=O)c1ccccn1` [Compound 116, 5-(4-CHLORO-PHENYL)-3-(PYRIDINE-2-SULFONYLAMINO)-THIOPHENE-2-CARBOXYLIC ACID] is 5 to 20 µM; for `Cc1ccccc1S(=O)(=O)Nc1cc(-c2cccc(C#N)c2)sc1C(=O)O` [Compound 117, 5-(3-CYANO-PHENYL)-3-(TOLUENE-2-SULFONYLAMINO)-THIOPHENE-2-CARBOXYLIC ACID] it is below 5 µM. The value for `Cc1ccc(-c2cc(NS(=O)(=O)c3cc(C)ccc3C)c(C(=O)O)s2)cc1` [Compound 118, 3-(2,5-DIMETHYL-BENZENESULFONYLAMINO)-5-P-TOLYL-THIOPHENE-2-CARBOXYLIC ACID] was below 5 µM; that for `Cc1ccc(-c2cc(NS(=O)(=O)c3ccc(F)cc3F)c(C(=O)O)s2)cc1` [Compound 119, 3-(2,4-DIFLUORO-BENZENESULFONYLAMINO)-5-P-TOLYL-THIOPHENE-2-CARBOXYLIC ACID] was below 5 µM.

As for `Cc1ccccc1S(=O)(=O)Nc1cc(CCc2ccccc2)sc1C(=O)O` [Compound 120, 5-PHENETHYL-3-(TOLUENE-2-SULFONYLAMINO)-THIOPHENE-2-CARBOXYLIC ACID], the half-maximal inhibitory concentration (IC50) was 5 to 20 µM.

Take `CCOC(=O)c1cccc(-c2cc(NS(=O)(=O)c3ccccc3C)c(C(=O)O)s2)c1` [Compound 121, 5-(3-ETHOXYCARBONYL-PHENYL)-3-(TOLUENE-2-SULFONYLAMINO)-THIOPHENE-2-CARBOXYLIC ACID]: the IC50 was 5 to 20 µM. The value for `COc1ccc(-c2cc(NS(=O)(=O)c3ccccc3C)c(C(=O)O)s2)cc1` [Compound 122, 5-(4-METHOXY-PHENYL)-3-(TOLUENE-2-SULFONYLAMINO)-THIOPHENE-2-CARBOXYLIC ACID] was below 5 µM; that for `COc1cccc(-c2cc(NS(=O)(=O)c3ccccc3C)c(C(=O)O)s2)c1` [Compound 123, 5-(3-METHOXY-PHENYL)-3-(TOLUENE-2-SULFONYLAMINO)-THIOPHENE-2-CARBOXYLIC ACID] was below 5 µM; that for `Cc1ccccc1S(=O)(=O)Nc1cc(-c2ccc(-c3ccc(Br)cc3)cc2)sc1C(=O)O` [Compound 124, 5-(4′-BROMO-BIPHENYL-4-YL)-3-(TOLUENE-2-SULFONYLAMINO)-THIOPHENE-2-CARBOXYLIC ACID] was below 5 µM.

As to `Cc1ccccc1S(=O)(=O)Nc1cc(-c2ccc(CO)cc2)sc1C(=O)O` [Compound 125, 5-(4-HYDROXYMETHYL-PHENYL)-3-(TOLUENE-2-SULFONYLAMINO)-THIOPHENE-2-CARBOXYLIC ACID], the half-maximal inhibitory concentration (IC50) was below 5 µM. Turning to `Cc1ccccc1S(=O)(=O)Nc1cc(-c2ccoc2)sc1C(=O)O` [Compound 126, 5-FURAN-3-YL-3-(TOLUENE-2-SULFONYLAMINO)-THIOPHENE-2-CARBOXYLIC ACID], the half-inhibitory concentration (IC50) was below 5 µM. The figure for `Cc1ccccc1S(=O)(=O)Nc1cc(-c2cc3ccccc3o2)sc1C(=O)O` [Compound 127, 5-BENZOFURAN-2-YL-3-(TOLUENE-2-SULFONYLAMINO)-THIOPHENE-2-CARBOXYLIC ACID] is below 5 µM; for `Cc1ccccc1S(=O)(=O)Nc1cc(-c2ccccn2)sc1C(=O)O` [Compound 128, 5-PYRIDIN-2-YL-3-(TOLUENE-2-SULFONYLAMINO)-THIOPHENE-2-CARBOXYLIC ACID] it is below 5 µM. Consider `O=C(O)c1sc(-c2ccc([N+](=O)[O-])cc2)cc1NS(=O)(=O)c1ccccn1` [Compound 129, 5-(4-NITRO-PHENYL)-3-(PYRIDINE-2-SULFONYLAMINO)-THIOPHENE-2-CARBOXYLIC ACID], for which the IC50 is 5 to 20 µM. For `CN(C(=O)c1cc2ccccc2o1)c1cc(-c2ccccc2)sc1C(=O)O` [Compound 130, 3-[(BENZOFURAN-2-CARBONYL)-METHYL-AMINO]-5-PHENYL-THIOPHENE-2-CARBOXYLIC ACID], the IC50 was above 20 µM. Consider `Cc1ccc(C(=O)N(C)c2cc(-c3ccccc3)sc2C(=O)O)c(C)c1` [Compound 131, 3-[(2,4-DIMETHYL-BENZOYL)-METHYL-AMINO]-5-PHENYL-THIOPHENE-2 CARBOXYLIC ACID], for which the IC50 was below 5 µM.

Regarding `N#Cc1ccccc1-c1ccc(CN(C(=O)c2ccc(Cl)cc2Cl)c2cc(-c3ccccc3)sc2C(=O)O)s1` [Compound 132, 3-[[(5-(2-CYANO-PHENYL)-THIOPHEN-2-YLMETHYL]-(2,4-DICHLORO-BENZOYL)-AMINO]-5-PHENYL-THIOPHENE-2-CARBOXYLIC ACID], the IC50 is below 5 µM. The value for `O=C(O)c1sc(-c2ccc(F)cc2)cc1NS(=O)(=O)c1ccccn1` [Compound 133, 5-(4-FLUORO-PHENYL)-3-(PYRIDINE-2-SULFONYLAMINO)-THIOPHENE-2-CARBOXYLIC ACID] was below 5 µM; that for `Cc1ccccc1S(=O)(=O)Nc1cc(/C=C/c2ccc(Cl)cc2)sc1C(=O)O` [Compound 134, 5-[2-(4-CHLORO-PHENYL)-VINYL]-3-(TOLUENE-2-SULFONYLAMINO)-THIOPHENE-2-CARBOXYLIC ACID] was 5 to 20 µM.

With `O=C(O)c1sc(-c2ccc(F)cc2)cc1NS(=O)(=O)c1ccccc1` [Compound 135, 3-BENZENESULFONYLAMINO-5-(4-FLUORO-PHENYL)-THIOPHENE-2-CARBOXYLIC ACID], the IC50 was below 5 µM. The value for `Cc1ccc(S(=O)(=O)Nc2cc(-c3ccccc3)sc2C(=O)O)c(C)c1` [Compound 136, 3-(2,4-DIMETHYL-BENZENESULFONYLAMINO)-5-PHENYL-THIOPHENE-2-CARBOXYLIC ACID] was below 5 µM; that for `C=Cc1ccccc1S(=O)(=O)Nc1cc(-c2ccccc2)sc1C(=O)O` [Compound 137, 5-PHENYL-3-(2-VINYL-BENZENESULFONYLAMINO)-THIOPHENE-2-CARBOXYLIC ACID] was 5 to 20 µM; that for `O=C(O)c1sc(-c2ccccc2)cc1NS(=O)(=O)c1cc(F)c(Br)cc1F` [Compound 138, 3-(4-BROMO-2,5-DIFLUORO-BENZENESULFONYLAMINO)-5-PHENYL-THIOPHENE-2-CARBOXYLIC ACID] was below 5 µM.

With `CC(=O)Nc1nc(C)c(S(=O)(=O)Nc2cc(-c3ccccc3)sc2C(=O)O)s1` [Compound 139, 3-(2-ACETYLAMINO-4-METHYL-THIAZOLE-5-SULFONYLAMINO)-5-PHENYL-THIOPHENE-2-CARBOXYLIC ACID], the IC50 is 5 to 20 µM. The figure for `CC(=O)c1ccc(S(=O)(=O)Nc2cc(-c3ccccc3)sc2C(=O)O)cc1` [Compound 140, 3-(4-ACETYL-BENZENESULFONYLAMINO)-5-PHENYL-THIOPHENE-2-CARBOXYLIC ACID] is 5 to 20 µM; for `O=C(O)c1sc(-c2ccccc2)cc1NS(=O)(=O)c1ccc(F)cc1C(F)(F)F` [Compound 141, 3-(4-FLUORO-2-TRIFLUOROMETHYL-BENZENESULFONYLAMINO)-5-PHENYL-THIOPHENE-2-CARBOXYLIC ACID] it is 5 to 20 µM. The figure for `COc1cc(C)ccc1S(=O)(=O)Nc1cc(-c2ccccc2)sc1C(=O)O` [Compound 142, 3-(2-METHOXY-4-METHYL-BENZENESULFONYLAMINO)-5-PHENYL-THIOPHENE-2-CARBOXYLIC ACID] is 5 to 20 µM; for `O=C(O)c1sc(-c2ccccc2)cc1NS(=O)(=O)c1ccc(F)c(F)c1` [Compound 143, 3-(3,4-DIFLUORO-BENZENESULFONYLAMINO)-5-PHENYL-THIOPHENE-2-CARBOXYLIC ACID] it is below 5 µM; for `CCOC(=O)c1c(C)oc(-c2ccc(Cl)cc2)c1S(=O)(=O)Nc1cc(-c2ccccc2)sc1C(=O)O` [Compound 144, 4-(2-CARBOXY-5-PHENYL-THIOPHEN-3-YLSULFAMOYL)-5-(4-CHLORO-PHENYL)-2-METHYL-FURAN-3-CARBOXYLIC ACID ETHYL ESTER] it is 5 to 20 µM. The value for `O=C(O)c1sc(-c2ccccc2)cc1NS(=O)(=O)c1ccc(F)c(C(F)(F)F)c1` [Compound 145, 3-(4-FLUORO-3-TRIFLUOROMETHYL-BENZENESULFONYLAMINO)-5-PHENYL-THIOPHENE-2-CARBOXYLIC ACID] was 5 to 20 µM. With `Nc1ccccc1S(=O)(=O)Nc1cc(-c2ccccc2)sc1C(=O)O` [Compound 146, 3-(2-AMINO-BENZENESULFONYLAMINO)-5-PHENYL-THIOPHENE-2-CARBOXYLIC ACID], the IC50 was below 5 µM. The figure for `O=C(O)c1sc(-c2ccccc2)cc1NS(=O)(=O)c1cccc([N+](=O)[O-])c1` [Compound 147, 3-(3-NITRO-BENZENESULFONYLAMINO)-5-PHENYL-THIOPHENE-2-CARBOXYLIC ACID] is below 5 µM; for `O=C(O)c1sc(-c2ccccc2)cc1NS(=O)(=O)c1ccc([N+](=O)[O-])cc1` [Compound 148, 3-(4-NITRO-BENZENESULFONYLAMINO)-5-PHENYL-THIOPHENE-2-CARBOXYLIC ACID] it is 5 to 20 µM.

For the compound `CC(C)N(C(=O)c1ccc(Cl)cc1Cl)c1cc(-c2ccccc2)sc1C(=O)O` [Compound 149, 3-[(2,4-DICHLORO-BENZOYL)-ISOPROPYL-AMINO]-5-PHENYL-THIOPHENE-2-CARBOXYLIC ACID], the IC50 was below 5 µM. The figure for `Cc1ccccc1S(=O)(=O)Nc1cc(Cc2cccc(C#N)c2)sc1C(=O)O` [Compound 150, 5-(3-CYANO-BENZYL)-3-(TOLUENE-2-SULFONYLAMINO)-THIOPHENE-2-CARBOXYLIC ACID] is above 20 µM; for `O=C(O)c1sc(-c2ccccc2)cc1NS(=O)(=O)c1c(F)cc(F)cc1F` [Compound 151, 5-PHENYL-3-(2,4,6-TRIFLUORO-BENZENESULFONYLAMINO)-THIOPHENE-2-CARBOXYLIC ACID] it is below 5 µM. Turning to `COc1ccc(S(=O)(=O)Nc2cc(-c3ccccc3)sc2C(=O)O)c([N+](=O)[O-])c1` [Compound 152, 3-(4-METHOXY-2-NITRO-BENZENESULFONYLAMINO)-5-PHENYL-THIOPHENE-2-CARBOXYLIC ACID], the IC50 was 5 to 20 µM.
